Legend:
[1] = Measurement of average thickness increase of single hair fibers
Method: The fibers are then removed and allowed to equilibrate and dry overnight. • 4) The next day, the fibers are imaged and measured for a final reading. For each experiment, untreated control and product treatment controls are ran, and at least 5 fibers are measured per treatment. • 5) In order to measure increase in thickness as a function of treatment, the […]. The average thickness increase is reported in the Table above, with measurements reported in micrometers. Viscosity Test Method

[2] = Viscosity test method (cone and plate viscometer/rheometer); type: physicochemical; settings: hair care composition (Example 1 formula) with 0.15% resorcinol of the given type, 1.89% Sepigel
Text: The viscosity of the hair care composition may be determined by a cone and plate viscometer/rheometer which measures the viscous drag resulting from the sample material contained in the gap between a rotating cone and a stationary plate. The geometry of the cone and plate may be such that the entire sample is subjected to a uniform shear rate.

Viscosity [2] | SMILES | average thickness increase compared to Resorcinol Type 2 and Type 3 (in words) ([1]; Example 1 formula, different types of resorcinol substituted) | Average Thickness Increase ([1]; Example 1 formula with 0.15% resorcinol of the given type, 1.89% Sepigel, fibers treated 10 minutes, dried overnight, at least 5 fibers per treatment)
 | Oc1ccc(Cl)c(O)c1 [Resorcinol 1, 4-Chlororesorcinol] | measurable average thickness increase | 
15958 cps | Oc1cccc(O)c1 [Resorcinol 3, 1,3-Dihydroxybenzene] |  | 3.5 μm
